One experiment concerns the target T1, Dimer of Gag-Pol polyprotein [489-587] (Human immunodeficiency virus 1, UniProt P12497).
T1 construct: 489-587
In words: Protease Inhibition Assay.
Details: not given
On the procedure:
For determination of IC50 values, HIV-1 protease was added to assay buffer containing inhibitor and the substrate (H-His-Lys-Ala-Arg-Val-Leu- (p-NO2) Phe-Glu-Ala-norleucine-Ser-NH2). The Leu- (p-NO2) Phe bond of the substrate was cleaved by the enzyme, and the substrate and products were separated by reversed-phase HPLC. Absorbance was measured at 220 nm, peak areas were determined, and percentage conversion to product was calculated.
The term IC50 denotes the concentration that inhibits the measured activity by half. A low value points to greater potency in that assay. As for `O=C1CC2(CCCc3ccccc32)OC(=O)C1SCCc1ccccc1` (stereo unspecified) [3,4-Dihydro-4-hydroxy-5-[(2-phenylethyl)thio]-spiro[naphthalene-1(2H),2-[2H]pyran]-6 (3 H)-one], the midpoint of inhibition, the IC50, lay at 1300 nM.

`O=C1CC2(CCCc3ccccc32)OC(=O)C1SCc1ccccc1` (stereo unspecified) [3,4-Dihydro-4-hydroxy-5-[(phenylmethyl)thio]spiro[naphthalene-1(2H),2-[2H]pyran]-6 (3 H)-one] had a 50% inhibitory concentration (IC50) of 2300 nM.

Molecule `CCCCCC1(CCCCC)CC(=O)C(SCc2ccccc2)C(=O)O1` (stereo unspecified) [3-(Benzylsulfanyl)-4-hydroxy-6,6-dipentyl-5,6-dihydro-pyran-2-one] came in with an IC50 of 327 nM. Still for that read-out and setting: next, `O=C1CC(CCCCO)(c2ccccc2)OC(=O)C1SCc1ccccc1` (stereo unspecified) [3-(benzylsulfanyl)-4-hydroxy-6-(4-hydroxybutyl)-6-phenyl-5,6-dihydro-2H-pyran-2-one]: 1260 nM; `O=C1CC(c2ccccc2)(c2ccccc2)OC(=O)C1Sc1ccccc1C1CCCCC1` (stereo unspecified) [3-[(2-Cyclohexylphenyl)sulfanyl]-5,6-dihydro-4-hydroxy-6,6-diphenyl-2H-pyran-2-one]: 127 nM; `O=C1CC(CCc2ccccc2)(c2ccccc2)OC(=O)C1Sc1ccccc1C1CCCCC1` (stereo unspecified) [3-[(2-cyclohexylphenyl)sulfanyl]-4-hydroxy-6-phenyl-6-(2-phenylethyl)-5,6-dihydro-2H-pyran-2-one]: 32 nM. On the same count and under the same terms, in the case of `O=C1CC(c2ccccc2)(c2ccccc2)OC(=O)C1Sc1ccccc1C1CCCC1` (stereo unspecified) [3-[(2-cyclopentylphenyl)sulfanyl]-4-hydroxy-6,6-diphenyl-5,6-dihydro-2H-pyran-2-one] it was 14 nM; in that of `CCC(C)c1ccccc1SC1C(=O)CC(c2ccccc2)(c2ccccc2)OC1=O` (stereo unspecified) [3-[(2-sec-Butylphenyl)sulfanyl]-5,6-dihydro-4-hydroxy-6,6-diphenyl-2H-pyran-2-one], 17 nM; in that of `CC(C)c1ccc(C(C)(C)C)c(SC2C(=O)CC(CCc3ccccc3)(c3ccccc3)OC2=O)c1` (stereo unspecified) [3-[(2-tert-Butyl-5-isopropylphenyl)sulfanyl]-5,6-dihydro-4-hydroxy-6-phenyl-6-(2-phenylethyl)-2H-pyran-2-one], 47 nM. Still for that read-out and setting: in the case of `CC(C)(C)c1ccccc1SC1C(=O)CC(c2ccccc2)(c2ccccc2)OC1=O` (stereo unspecified) [3-[(2-tert-Butylphenyl)sulfanyl]-5,6-dihydro-4-hydroxy-6,6-diphenyl-2H-pyran-2-one] it was 49 nM; in that of `Cc1ccc(C(C)(C)C)c(SC2C(=O)CC(c3ccccc3)(c3ccccc3)OC2=O)c1` (stereo unspecified) [3-[(2-tert-butyl-5-methylphenyl)sulfanyl]-4-hydroxy-6,6-diphenyl-5,6-dihydro-2H-pyran-2-one], 12 nM; in that of `CC(C)(C)c1ccccc1SC1C(=O)CC(CCc2ccccc2)(c2ccccc2)OC1=O` (stereo unspecified) [3-[(2-tert-butylphenyl)sulfanyl]-4-hydroxy-6-phenyl-6-(2-phenylethyl)-5,6-dihydro-2H-pyran-2-one], 3 nM. For the molecule `CC(C)c1ccc(C(C)C)c(SC2C(=O)CC(c3ccccc3)(c3ccccc3)OC2=O)c1` (stereo unspecified) [3-{[2,5-bis(propan-2-yl)phenyl]sulfanyl}-4-hydroxy-6,6-diphenyl-5,6-dihydro-2H-pyran-2-one], it took 119 nM to reach half-maximal inhibition (IC50). The same measure, in the same setting: next, `CCC(C)c1ccccc1SC1C(=O)CC(CCc2ccccc2)(c2ccccc2)OC1=O` (stereo unspecified) [3-{[2-(butan-2-yl)phenyl]sulfanyl}-4-hydroxy-6-phenyl-6-(2-phenylethyl)-5,6-dihydro-2H-pyran-2-one]: 10 nM; `Cc1ccc(C(C)(C)C)c(SC2C(=O)CC(CCc3ccccc3)(c3ccccc3)OC2=O)c1` (stereo unspecified) [4-Hydroxy-5,6-dihydropyrone deriv. 49]: 10 nM; `Cc1ccccc1SC1C(=O)CC(c2ccccc2)(c2ccccc2)OC1=O` (stereo unspecified) [4-hydroxy-3-[(2-methylphenyl)sulfanyl]-6,6-diphenyl-5,6-dihydro-2H-pyran-2-one]: 388 nM. In turn, `Cc1ccccc1SC1C(=O)CC(CCc2ccccc2)(c2ccccc2)OC1=O` (stereo unspecified) [4-hydroxy-3-[(2-methylphenyl)sulfanyl]-6-phenyl-6-(2-phenylethyl)-5,6-dihydro-2H-pyran-2-one] came in with a half-maximal inhibitory concentration (IC50) of 73 nM.

Molecule `Cc1ccc(C(C)C)c(SC2C(=O)CC(c3ccccc3)(c3ccccc3)OC2=O)c1` (stereo unspecified) [4-hydroxy-3-{[5-methyl-2-(propan-2-yl)phenyl]sulfanyl}-6,6-diphenyl-5,6-dihydro-2H-pyran-2-one] yielded an IC50 of 38 nM. The same measure, in the same setting: next, `Cc1ccc(C(C)C)c(SC2C(=O)CC(CCc3ccccc3)(c3ccccc3)OC2=O)c1` (stereo unspecified) [4-hydroxy-3-{[5-methyl-2-(propan-2-yl)phenyl]sulfanyl}-6-phenyl-6-(2-phenylethyl)-5,6-dihydro-2H-pyran-2-one]: 7 nM. On the same count and under the same terms, in the case of `CC(C)c1ccccc1SC1C(=O)CC(c2ccccc2)(c2ccccc2)OC1=O` (stereo unspecified) [4-hydroxy-6,6-diphenyl-3-{[2-(propan-2-yl)phenyl]sulfanyl}-5,6-dihydro-2H-pyran-2-one] it was 23 nM; in that of `CC(C)c1ccccc1SC1C(=O)CC(CCc2ccccc2)(c2ccccc2)OC1=O` (stereo unspecified) [4-hydroxy-6-phenyl-6-(2-phenylethyl)-3-{[2-(propan-2-yl)phenyl]sulfanyl}-5,6-dihydro-2H-pyran-2-one], 14 nM; in that of `O=C1CC2(CCc3ccccc32)OC(=O)C1SCc1ccccc1` (stereo unspecified) [5'-(benzylsulfanyl)-4'-hydroxy-3',6',2,3-tetrahydrospiro[indene-1,2'-pyran]-6'-one], 11800 nM. The same measure, in the same setting: next, `CN(CC1(c2ccccc2)CC(=O)C(SCCc2ccccc2)C(=O)O1)c1ccccc1` (stereo unspecified) [5,6-Dihydro-4-hydroxy-6-[(methylphenylamino)methyl]-6-phenyl-3-[(2-phenylethyl)thio]-2H-pyran-2-one]: 2280 nM.

Staying with this experiment, now noted: pH 4.7; 37 °C.
The molecule `O=C(O)CCC1(c2ccccc2)CC(=O)C(SCCc2ccccc2)C(=O)O1` (stereo unspecified) [3-(3,6-Dihydro-4-hydroxy-6-oxo-2-phenyl-5-[(2-phenylethyl)thio]-2H-pyran-2-yl)propanoic Acid] came in with a concentration for half-maximal inhibition (IC50) of 1200 nM.

`CC(C)CC1(c2ccccc2)CC(=O)C(SCc2ccccc2)C(=O)O1` (stereo unspecified) [3-(benzylsulfanyl)-4-hydroxy-6-(2-methylpropyl)-6-phenyl-5,6-dihydro-2H-pyran-2-one] yielded an IC50 of 440 nM. `CC(C)CCC1(c2ccccc2)CC(=O)C(SCc2ccccc2)C(=O)O1` (stereo unspecified) [3-(benzylsulfanyl)-4-hydroxy-6-(3-methylbutyl)-6-phenyl-5,6-dihydro-2H-pyran-2-one] returned an IC50 of 98 nM. The molecule `CC(C)CCCC1(c2ccccc2)CC(=O)C(SCc2ccccc2)C(=O)O1` (stereo unspecified) [3-(benzylsulfanyl)-4-hydroxy-6-(4-methylpentyl)-6-phenyl-5,6-dihydro-2H-pyran-2-one] had an IC50 of 183 nM.

`CCCCCC1(c2ccccc2)CC(=O)C(SCc2ccccc2)C(=O)O1` (stereo unspecified) [3-(benzylsulfanyl)-4-hydroxy-6-pentyl-6-phenyl-5,6-dihydro-2H-pyran-2-one] returned a concentration for half-maximal inhibition (IC50) of 124 nM.

In the case of `O=C1CC(CCc2ccccc2)(c2ccccc2)OC(=O)C1SCc1ccccc1` (stereo unspecified) [3-(benzylsulfanyl)-4-hydroxy-6-phenyl-6-(2-phenylethyl)-5,6-dihydro-2H-pyran-2-one], the IC50 was 60 nM. Same read-out and setting: in the case of `CCCCC1(c2ccccc2)CC(=O)C(SCc2ccccc2)C(=O)O1` (stereo unspecified) [3-(benzylsulfanyl)-6-butyl-4-hydroxy-6-phenyl-5,6-dihydro-2H-pyran-2-one] it was 270 nM; in that of `CCCCCCC1(c2ccccc2)CC(=O)C(SCc2ccccc2)C(=O)O1` (stereo unspecified) [3-(benzylsulfanyl)-6-hexyl-4-hydroxy-6-phenyl-5,6-dihydro-2H-pyran-2-one], 180 nM; in that of `NC(=O)CCCC1(c2ccccc2)CC(=O)C(SCCc2ccccc2)C(=O)O1` (stereo unspecified) [4-(3,6-Dihydro-4-hydroxy-6-oxo-2-phenyl-5-[(phenylethyl)thio]-2H-pyran-2-yl)butyramide], 1300 nM. The same measure, in the same setting: in the case of `CC(C)CCC1(c2ccccc2)CC(=O)C(SCCc2ccccc2)C(=O)O1` (stereo unspecified) [4-hydroxy-6-(3-methylbutyl)-6-phenyl-3-[(2-phenylethyl)sulfanyl]-5,6-dihydro-2H-pyran-2-one] it was 96 nM; in that of `CC(C)CCCC1(c2ccccc2)CC(=O)C(SCCc2ccccc2)C(=O)O1` (stereo unspecified) [4-hydroxy-6-(4-methylpentyl)-6-phenyl-3-[(2-phenylethyl)sulfanyl]-5,6-dihydro-2H-pyran-2-one], 155 nM; in that of `CCCCCC1(c2ccccc2)CC(=O)C(SCCc2ccccc2)C(=O)O1` (stereo unspecified) [4-hydroxy-6-pentyl-6-phenyl-3-[(2-phenylethyl)sulfanyl]-5,6-dihydro-2H-pyran-2-one], 84 nM. On the same count and under the same terms, next, `O=C(O)CCCC1(c2ccccc2)CC(=O)C(SCCc2ccccc2)C(=O)O1` (stereo unspecified) [4-{4-hydroxy-6-oxo-2-phenyl-5-[(2-phenylethyl)sulfanyl]-3,6-dihydro-2H-pyran-2-yl}butanoic acid]: 270 nM; `O=C1CC(c2ccccc2)(c2ccccc2)OC(=O)C1Sc1ccccc1` (stereo unspecified) [5,6-Dihydro-4-hydroxy-6,6-diphenyl-3-(phenylthio)-2H-pyran-2-one]: 110 nM; `O=C1CC(c2ccccc2)(c2ccccc2)OC(=O)C1SCCc1ccccc1` (stereo unspecified) [5,6-Dihydro-4-hydroxy-6,6-diphenyl-3-[(2-phenylethyl)thio]-2H-pyran-2-one]: 152 nM. `O=C1CC(c2ccccc2)(c2ccccc2)OC(=O)C1SCc1ccccc1` (stereo unspecified) [5,6-Dihydro-4-hydroxy-6,6-diphenyl-3-[(phenylmethyl)thio]-2H-pyran-2-one] showed an IC50 of 262 nM. Same read-out and setting: next, `CC(C)CC1(c2ccccc2)CC(=O)C(SCCc2ccccc2)C(=O)O1` (stereo unspecified) [5,6-Dihydro-4-hydroxy-6-(2-methylpropyl)-6-phenyl-3-[(2-phenylethyl)thio]-2H-pyran-2-one]: 1200 nM; `CC(C)CCC1(c2ccccc2)CC(=O)C(Sc2ccccc2)C(=O)O1` (stereo unspecified) [5,6-Dihydro-4-hydroxy-6-(3-methylbutyl)-6-phenyl-3-(phenylthio)-2H-pyran-2-one]: 1400 nM.

The record behind these values is BindingDB's records for doi:10.1021/jm970615f (Parke-Davis Pharmaceutical Research, 1997).
